The subject of series [1] is A549. Briefly: Antiproliferative activity against human A549 cells assessed as reduction in cell viability incubated for 48 hrs by CCK8 assay. It is filed as functional, cell-based. As to conditions: A549, 48 h. (In general: Tetrazolium dyes change colour on reduction, which living cells bring about.)
For series [2], the system named is HepG2. Briefly: Antiproliferative activity against human HepG2 cells assessed as reduction in cell viability incubated for 48 hrs by CCK8 assay. It is filed as functional, cell-based. The note with it: HepG2, 48 h.
The test system of series [3] is MCF7. In words: Antiproliferative activity against human MCF7 cells assessed as reduction in cell viability incubated for 48 hrs by CCK8 assay. The format is functional, cell-based. The note with it: MCF7, 48 h.
Series [4] deals with SGC-7901. In words: Antiproliferative activity against human SGC-7901 cells assessed as reduction in cell viability incubated for 48 hrs by CCK8 assay. As to conditions: SGC-7901, 48 h. It is filed as functional, cell-based.
Series [5] deals with RAW264.7. Briefly: Antiinflammatory activity in mouse RAW264.7 assessed as inhibition of LPS-stimulated NO production pretreated with LPS followed by compund addition by Griess reagent based microplate reader assay. The format is functional, cell-based. The note with it: Mus musculus, RAW264.7. A general note: The Griess reaction detects nitrite, a stable product of nitric oxide.

Series [6] is described as follows: Cytotoxicity against mouse RAW264.7 cells assessed as reduction in cell viability incubated for 48 hrs by CCK8 assay. The format is toxicity, cell-based.
The nature of series [7]: Cytotoxicity against human L02 cells assessed as reduction in cell viability incubated for 48 hrs by CCK8 assay. It is filed as toxicity, cell-based.

SMILES strings stand for the structures. pIC50: −log10 of the molar value.

The pIC50 is the IC50 on a negative log10 scale, so that one unit is a factor of ten. Broadly, the IC50 is the point on the concentration scale where inhibition reaches its midpoint. Consider `C[C@@H]1C(=O)O[C@@H]2C[C@@]1(C)[C@@H]1C(=O)[C@@]3(O)O[C@]14[C@@]2(C)OC(=O)[C@@]4(O)CC[C@H]1[C@H]3C[C@@H](O)[C@@]2(O)CC=CC(=O)[C@]12C`, for which the pIC50 in series [1] was less than 4.30; in series [2] it was less than 4.30; in series [3] it was less than 4.30; in series [4], less than 4.30; in series [5] it was 4.25. The IC50 at 48 h in series [6] and in series [7] was more than 50 µM throughout.

For the compound `C[C@@]12C[C@H]3OC(=O)[C@@H]1CO[C@]14C(=O)O[C@@]5([C@H]21)[C@@]3(C)OC(=O)[C@@]5(O)CC[C@H]1[C@H]4CC[C@@]2(O)CC=CC(=O)[C@]12C`, the pIC50 in series [1] was less than 4.30; in series [2], less than 4.30; in series [3], less than 4.30; in series [4], less than 4.30; in series [5], 4.10. Further, the half-maximal inhibitory concentration (IC50) at 48 h in series [6] and in series [7] was more than 50 µM in each case.

Take `C[C@]12C(=O)C=CCC1=CC[C@@H]1[C@@H]2[C@H]2C[C@]3(O)C(=O)O[C@@]4(C)[C@H]5C[C@@]6(C)[C@@H]7[C@@]2(O)[C@@]1(OC[C@H]6C(=O)O5)O[C@@]743`: the pIC50 in series [1] was less than 4.30; in series [2] it was less than 4.30; in series [3], less than 4.30; in series [4] it was less than 4.30; in series [5], 5.02. Further, the IC50 at 48 h in series [6] and in series [7] was more than 50 µM in each case.

Turning to `C[C@]12OC(=O)[C@@]3(O)CC[C@H]4[C@@H](C[C@@H](O)[C@]5(O)CC=CC(=O)[C@]45C)[C@@]45OC[C@H]6C(=O)O[C@@H]1C[C@@]6(CO)[C@H](C4=O)[C@]23O5`, the negative-log IC50 (pIC50) is less than 4.30 in series [1]; less than 4.30 in series [2]; less than 4.30 in series [3]; less than 4.30 in series [4]; 4.36 in series [5]. For the same compound, the IC50 at 48 h in series [6] and in series [7] was more than 50 µM throughout.

With `COC(=O)C[C@@H](O)C(=O)O[C@]12CC=CC(=O)[C@]1(C)[C@H]1CC[C@]3(O)C(=O)O[C@@]4(C)[C@H]5C[C@]6(C)[C@@H](CO[C@]7(O[C@@]43[C@H]6C7=O)[C@@H]1C[C@H]2O)C(=O)O5`, the pIC50 in series [1] was less than 4.30; in series [2], less than 4.30; in series [3], less than 4.30; in series [4], less than 4.30; in series [5], 4.49. The IC50 at 48 h in series [6] and in series [7] was more than 50 µM throughout.

As to `COC(=O)CCC(=O)O[C@]12CC=CC(=O)[C@]1(C)[C@H]1CC[C@]3(O)C(=O)O[C@@]4(C)[C@H]5C[C@]6(C)[C@@H](CO[C@]7(O[C@@]43[C@H]6C7=O)[C@@H]1C[C@H]2O)C(=O)O5`, the pIC50 in series [1] was less than 4.30; in series [2] it was less than 4.30; in series [3], less than 4.30; in series [4] it was less than 4.30; in series [5] it was 5.51. The IC50 at 48 h in series [6] and in series [7] was more than 50 µM each time.

With `C[C@@]12C[C@H]3OC(=O)[C@@H]1CO[C@@]14O[C@@]5([C@H]2C1=O)[C@@]3(C)OC(=O)[C@@]5(O)CC[C@H]1[C@H]4C[C@H](O)[C@]2(O)CC=CC(=O)[C@]12C`, the negative logarithm of the IC50 (pIC50) in series [1] is less than 4.30; in series [2], less than 4.30; in series [3], less than 4.30; in series [4] it was less than 4.30; in series [5], 4.36. Besides, the IC50 at 48 h in series [6] and in series [7] was more than 50 µM each time.

With `COC(=O)C[C@H](O)C(=O)O[C@]12CC=CC(=O)[C@]1(C)[C@H]1CC[C@]3(O)C(=O)O[C@@]4(C)[C@H]5C[C@]6(C)[C@@H](CO[C@]7(O[C@@]43[C@H]6C7=O)[C@@H]1C[C@H]2O)C(=O)O5`, the negative logarithm of the IC50 (pIC50) in series [1] is less than 4.30; in series [2] it was less than 4.30; in series [3], less than 4.30; in series [4], less than 4.30; in series [5], 4.55. For the same compound, the half-maximal inhibitory concentration (IC50) at 48 h in series [6] and in series [7] was more than 50 µM each time.

Regarding `CNC(=N)NCCC[C@H](N)C(=O)OC`, in series [5], the negative-log IC50 (pIC50) is 4.37.
